Test results as given in patent US20160264527A1 (priority 2011, published 2016).
Structures can show the parent of a compound that is named as a salt. Where two headings read alike, the source gives them in different places.

Columns and labels:
INS832/13 cells = assay: Insulin secretion from INS832/13 cells, 2-h static incubations; type: cell-based; details: control 1.95
Protocol: Materials. Cell culture supplies were from Corning (Corning, N.Y.) and Fisherbrand (Canada). VVWL70 was dissolved in dimethylsulfoxide (DMSO) before their use in insulin secretion experiments. Palmitate sodium salt was from Nu-Check Prep (Elysian, Minn.) and bicinchoninic acid protein assay kit from Pierce (Rockford, Ill.) was used. Stock unlabelled palm itate was prepared at 4 mM in 5% defatted BSA as described elsewhere (Roduit et al. Diabetes (2004) 53 pp 1007-1019,).
Cell culture. INS832/13 cells (Hohmeir et al. Diabetes (2000) 49 pp 424-430,) were cultured at 37° C. in a humidified atmosphere containing 5% CO2 in RPMI 1640 with sodium bicarbonate, supplemented with 10% (v/v) fetal calf serum (Wisent), 10 mM HEPES, pH 7.4, 2 mM L-glutamine, 1 mM sodium pyruvate and 50 μM β-mercaptoethanol (complete RPMI). Cells were grown to 80% confluence. Media were changed to RPMI 1640 containing 3 mM glucose supplemented as the complete RPMI 24 h prior to the experiments. Insulin secretion incubations were conducted in Krebs-Ringer bicarbonate buffer containing 10 mM HEPES, pH 7.4 (KRBH).
Insulin secretion measurement. INS832/13 cells were washed in KRBH containing 1 mM glucose and 0.5% defatted BSA (KRBH 1 G/0.5% BSA) and pre-incubated for 45 min in KRBH 1 G/0.5% BSA in presence of pharmacological agents (at indicated concentrations) or vehicle (DMSO). For examining the effect of VVWL70 (an inhibitor of ABHD6), other compounds identified in table 1, and/or orlistat (lipase inhibitor), the compounds were added first in pre-incubation media and then during incubation at 1 to 20 μM concentration (see Table-2) at 2 mM and 10 mM glucose. Insulin secretion from INS832/13 cells was measured from 2-h static incubations in KRBH containing various glucose concentrations, 0.5% defatted BSA and pharmacological agents or vehicle (DMSO), with or without 35 mM KCl or 0.3 mM palm itate, as specified (see Peyot et al., 2009—Adipose Triglyceride Lipase Is Implicated in Fuel- and Non-fuel-stimulated Insulin Secretion—J Biol Chem, 284: pp. 16848-16859). The experiments were done 3 times, with triplicates of each measurement.

CD1 strain mice = assay: Oral glucose tolerance test (OGTT) in streptozotocin-induced mildly diabetic mice; type: in vivo; details: 5 mg/kg intraperitoneally daily for three days prior to OGTT; glucose 2 g/kg by gavage; versus vehicle; FIGS. 1 and 2
Protocol: In this experiment—CD1 strain mice were injected once with streptozotocin (100 mg/kg body wt) to induce mild diabetes. After 4 weeks, the mice were fasted overnight and oral glucose tolerance test (OGTT) was done. Half the animals (5) received ABHD6 inhibitor, VVWL70 for the three days prior to OGTT, daily, intraperitoneally (at 5 mg/kg body weight) and the other half received only vehicle. For OGTT, glucose was given by gavage (2 g/kg body wt), followed by blood collection at indicated time points (on the graph) for the analysis of blood glucose (by glucometer) and plasma insulin (by ELISA).

DAGL = assay: Inhibition of DAGL in INS 832/13 β-cell extracts (1,2-dioleoylglycerol hydrolysis, HPLC); type: biochemical; details: compound at 10 μM; 60 min at 30° C.; 50 μM 1,2-dioleoylglycerol
Protocol: (§1) Both ABHD6 and DAGL enzymes were assayed in a single incubation, with separate substrates. Cell extract, 10 μg was incubated in a final volume of 50 μl with 50 μM 1,2-dioleoylglycerol (substrate for DAGL) and 50 μM 1-palmitoylglycerol (substrate for ABHD6). […] Quantification of oleate and palm itate released gave the activities of DAGL and ABHD6, respectively. Incubations contained indicated compounds at 10 μM (or as shown) concentration. VVWL70 was used as a positive control for ABHD6 inhibition and orlistat (ORL) was used as a control for total lipase inhibition.

ABHD6 = target: T1, ABHD6 (Rattus norvegicus, UniProt Q5XI64); assay: biochemical; details: read-out: ABHD6 Inhibition %
T1 construct: INS 832/13 β-cell extracts (whole cell) were prepared by sonication; endogenous in cells; host or cells: INS 832/13 β-cells, whole-cell extract
T1 sequence (Q5XI64 1-337): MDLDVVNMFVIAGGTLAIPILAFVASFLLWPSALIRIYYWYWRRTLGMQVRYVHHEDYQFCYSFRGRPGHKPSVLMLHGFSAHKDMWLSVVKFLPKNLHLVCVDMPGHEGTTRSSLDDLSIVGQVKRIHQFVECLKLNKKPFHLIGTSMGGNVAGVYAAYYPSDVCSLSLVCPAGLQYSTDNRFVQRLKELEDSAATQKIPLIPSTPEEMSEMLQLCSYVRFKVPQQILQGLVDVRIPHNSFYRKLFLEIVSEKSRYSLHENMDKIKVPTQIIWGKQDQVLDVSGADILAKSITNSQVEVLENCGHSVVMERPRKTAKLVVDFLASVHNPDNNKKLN
Protocol: as §1

[1] = compound at 10 μM, 60 min at 30° C., 50 μM 1-palmitoylglycerol

Compound	Insulin secretion (% content) (INS832/13 cells; compound at 2 μM)	Insulin secretion (% content) (INS832/13 cells; compound at 5 μM)	Insulin secretion (% content) (INS832/13 cells; compound at 10 μM)	blood glucose control in OGTT (CD1 strain mice)	plasma insulin levels in OGTT (CD1 strain mice)	DAGL Inhibition % (DAGL) [%]	inhibition at 10 µM (ABHD6) [%]	inhibition at 10 µM (ABHD6; [1]) [%]
CN(Cc1cccc(-c2ccncc2)c1)C(=O)Oc1ccc(-c2ccc(C(N)=O)cc2)cc1 [Compound 1, reference compound]	3.22	3.97	6.03	able to control their blood glucose levels better than the mice which were given vehicle	increase in plasma insulin levels			
CNC(=O)c1ccc(-c2ccc(OC(=O)N(C)Cc3cccc(-c4ccncc4)c3)cc2)cc1 [Compound 2, 4′-(Methylcarbamoyl)biphenyl-4-yl N-methyl-N-(3-(pyridin-4-yl)benzyl)carbamate]	2.25	3.70	6.08			0	98	
NC(=O)c1ccc(-c2ccc(OC(=O)N(Cc3cccc(-c4ccncc4)c3)c3ccccc3)cc2)cc1 [Compound 3, trifluoroacetate salt]	2.00	2.10	3.05			0		90
CNC(=O)c1ccc(-c2ccc(OC(=O)N(C)Cc3cccc(-c4ccccc4)c3)cc2)cc1 [Compound 4, 4′-(Methylcarbamoyl)biphenyl-4-yl N-methyl-N-(3-phenylbenzyl)carbamate]	3.05	3.65	3.82			0	70	
CN(Cc1cccc(-c2ccncc2)c1)C(=O)Oc1ccc(-c2ccc(C(=O)NC3CC3)cc2)cc1 [Compound 5, 4′-(Cyclopropylcarbamoyl)biphenyl-4-yl N-methyl-N-(3-(pyridin-4-yl)benzyl)carbamate]	2.01	2.05	3.56			10	60	
CNC(=O)c1ccc(-c2ccc(OC(=O)N(Cc3cccc(-c4ccncc4)c3)C(C)C)cc2)cc1 [Compound 6, 4′-(Methylcarbamoyl)biphenyl-4-yl N-i-propyl-N-(3-(pyridin-4-yl)benzyl)carbamate]	3.10	3.98	5.88			0		95
